Consider 20 compounds from ChEMBL document CHEMBL3091423, “Synthesis, antioxidant capacity, and structure-activity relationships of tri-O-methylnorbergenin analogues on tyrosinase inhibition” (Bioorg Med Chem Lett, 2013).

Usually IC50 stands for the midpoint of a concentration-inhibition curve. Read a low IC50 as greater potency in that assay. As usually defined, the Ki is the dissociation constant of the complex between target and ligand, obtained from inhibition or displacement. Read a high Ki as lower affinity.

The target of assay [1] is T1, Tyrosinase (Agaricus bisporus, UniProt O42713).
T1 sequence (O42713 whole entry): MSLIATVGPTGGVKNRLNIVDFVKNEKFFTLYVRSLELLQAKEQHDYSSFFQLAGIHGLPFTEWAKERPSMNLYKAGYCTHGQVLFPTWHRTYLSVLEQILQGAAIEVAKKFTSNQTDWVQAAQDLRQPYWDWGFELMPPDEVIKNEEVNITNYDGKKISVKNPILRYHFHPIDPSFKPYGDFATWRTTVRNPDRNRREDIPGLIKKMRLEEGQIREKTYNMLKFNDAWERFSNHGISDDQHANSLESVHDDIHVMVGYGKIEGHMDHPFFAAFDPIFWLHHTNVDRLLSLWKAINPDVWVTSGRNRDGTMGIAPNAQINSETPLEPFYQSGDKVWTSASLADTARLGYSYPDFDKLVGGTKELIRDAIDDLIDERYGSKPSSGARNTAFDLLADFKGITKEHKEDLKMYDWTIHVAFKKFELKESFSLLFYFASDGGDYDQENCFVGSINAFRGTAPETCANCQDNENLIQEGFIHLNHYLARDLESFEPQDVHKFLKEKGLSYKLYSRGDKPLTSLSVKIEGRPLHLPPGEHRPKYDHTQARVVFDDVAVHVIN
Description: (§1) Inhibition of mushroom tyrosinase using L-tyrosine as substrate preincubated for 10 mins followed by enzyme addition measured after 20 mins by microplate reader analysis

Assay [2] concerns the target T1, Tyrosinase. Kind of assay: Inhibition of mushroom tyrosinase using L-tyrosine as substrate by Dixon plot analysis.
The target of assay [3] is T1, Tyrosinase. Description: Mixed inhibition of mushroom tyrosinase using L-tyrosine as substrate by Dixon/Cornish-Bowden plot analysis.
The target in assay [4] is T2, Tyrosinase (Agaricus bisporus) (UniProt O42713).
T2 sequence (whole entry): T1 sequence (O42713 whole entry)
Description: as §1

For assay [5], the target named is T1, Tyrosinase. Description: Uncompetitive inhibition of mushroom tyrosinase using L-tyrosine as substrate by Dixon/Cornish-Bowden plot analysis.

As to `COc1cc2c(c(OC)c1OC)[C@H]1O[C@@H](CO)[C@H](O)[C@@H](O)[C@@H]1OC2=O`, the IC50 in assay [1] is > 100 µM. The same measure, in the same setting: the value for `COc1cc(C(=O)OC[C@H]2O[C@H]3c4c(cc(OC)c(OC)c4OC)C(=O)O[C@@H]3[C@@H](O)[C@@H]2O)cc(OC)c1O` was > 100 µM; that for `COc1cc(C(=O)O)cc(OC)c1O` [SYRINGIC ACID] was > 100 µM.

`COc1cc(C(=O)OC[C@H]2O[C@H]3c4c(cc(OC)c(OC)c4OC)C(=O)O[C@@H]3[C@@H](O)[C@@H]2O)ccc1O`: the concentration for half-maximal inhibition (IC50) in assay [1] is > 100 µM.

As to `COc1cc2c(c(OC)c1OC)[C@@H]1O[C@H](COC(=O)c3ccc(O)cc3)[C@@H](O)[C@H](O)[C@H]1OC2=O`, the inhibition constant Ki in assay [2] was 74.8 µM; in assay [3], 121 µM. Moreover, the IC50 in assay [1] was 31.5 µM. In assay [4], the inhibition entry was “Dose-dependent effect”.

Regarding `COc1cc2c(c(OC)c1OC)[C@@H]1O[C@H](COC(=O)c3ccccc3)[C@@H](O)[C@H](O)[C@H]1OC2=O`, the IC50 in assay [1] was > 100 µM. In assay [5], `COc1ccc(C(=O)OC[C@H]2O[C@H]3c4c(cc(OC)c(OC)c4OC)C(=O)O[C@@H]3[C@@H](O)[C@@H]2O)cc1O` came in with a Ki of 107 µM. The same compound displayed an IC50 in assay [1] of 38.8 µM. In assay [4], the inhibition entry is “Dose-dependent effect”.

For the compound `O=C(O)c1ccc(O)c(O)c1` [PROTOCATECHUIC ACID], the IC50 in assay [1] is > 100 µM. Regarding `COc1cc2c(c(OC)c1OC)[C@@H]1O[C@H](COC(=O)c3ccc(O)c(O)c3)[C@@H](O)[C@H](O)[C@H]1OC2=O`, the values for the Ki in assay [2] and in assay [3] were 4.5 µM and 7.3 µM, respectively. Further, the IC50 in assay [1] was found to be 9.1 µM. For the same compound, the inhibition entry in assay [4] was “Dose-dependent effect”. In turn, `COc1c(O)cc2c(c1O)[C@@H]1O[C@H](COC(=O)c3ccc(O)c(O)c3)[C@@H](O)[C@H](O)[C@H]1OC2=O` came in with an IC50 in assay [1] of 17.5 µM. The same measure, in the same setting: then `COc1ccc(C(=O)O)cc1OC` [VERATRIC ACID], with > 100 µM. Same read-out and setting: then `COc1c(O)cc2c(c1O)[C@@H]1O[C@H](CO)[C@@H](O)[C@H](O)[C@H]1OC2=O` [BERGENIN], with > 100 µM.

In the case of `O=C(O)c1ccc(O)cc1` [PARABEN], the IC50 in assay [1] is > 100 µM. On the same count and under the same terms, the value for `COc1ccc(C(=O)O)cc1` [p-ANISIC ACID] was > 100 µM. The same measure, in the same setting: then `COc1ccc(C(=O)O)cc1O` [ISOVANILLIC ACID], with > 100 µM.

`COc1cc(OC)cc(C(=O)OC[C@H]2O[C@H]3c4c(cc(OC)c(OC)c4OC)C(=O)O[C@@H]3[C@@H](O)[C@@H]2O)c1`: the IC50 in assay [1] is > 100 µM.

Regarding `O=C(O)c1ccccc1` [BENZOIC ACID], in assay [1], the IC50 was > 100 µM. Consider `COc1cc(OC)cc(C(=O)O)c1` [3,5-DIMETHOXYBENZOIC ACID], for which, in assay [1], the IC50 was > 100 µM.

As to `COc1ccc(C(=O)OC[C@H]2O[C@H]3c4c(cc(OC)c(OC)c4OC)C(=O)O[C@@H]3[C@@H](O)[C@@H]2O)cc1OC`, the IC50 in assay [1] was > 100 µM. Same read-out and setting: then `COc1ccc(C(=O)OC[C@H]2O[C@H]3c4c(cc(OC)c(OC)c4OC)C(=O)O[C@@H]3[C@@H](O)[C@@H]2O)cc1`, with > 100 µM.
